Reference: US9023789B2, “Amylin analogs and pharmaceutical compositions thereof” (Novo Nordisk A/S, priority 2012, dated 2015)
“Also recorded” adds a separate entry of the source. Where two headings read alike, the source gives them in different places. Bridge positions count the residues as written; N and C are the ends. Ends that are not written are not given here.

Experiments:
Male Wistar rats = assay: ASSAY (XII) effect from single subcutaneous administration on plasma calcium in rats; format: in vivo, rat; conditions: for Plasma calcium red (%) 0-12 h (maximal): single s.c., compared to vehicle
Description: Assay (XII)—Effect from Single Subcutaneous Administration of Analogue on Plasma Calcium in Rats
Male Wistar rats (Taconic Europe, ˜250 g at test date) were acclimatized to handling prior to the study. Rats were divided in groups of five and subcutaneously dosed with test compound at time=0. At time T=−15 min; 1 h, 2 h, 4 h, 7 h, 12 h, and 24 h a blood sample was obtained and heparin stabilized plasma was analysed for total calcium (Cobas, Hitachi). Data are illustrated in graphs as mean±SEM.

Male Sprague-Dawley rats = assay: ASSAY (XI) single subcutaneous administration, food intake monitored for 48 hours in rats; format: in vivo, rat; conditions: for Food intake red (%) 0-24 h / Food intake red (%) 24-48 h: single s.c., compared to vehicle
Text: Assay (XI)—Effect from Single Subcutaneous Administration of Analogue on Plasma Calcium in Rats
Male Sprague-Dawley rats (Taconic Europe, ˜250 g at test date) were acclimatized to reversed day light cycle (lights on from 10 PM to 10 AM) and single housing in online food intake monitoring system (Ellegaard MBRose, Denmark) prior to study start. […] Data are illustrated in graphs as mean±SEM.

Sprague Dawley (SD) rats = assay: ASSAY (I) efficacy testing on appetite (food intake) using an ad libitum fed rat model; format: in vivo; conditions: rats, single subcutaneous 1000 nmol/kg injection
Text: Sprague Dawley (SD) rats from Taconic Europe, Denmark are used for the experiments. The rats have a body weight 200-250 g at the start of experiment. The rats arrive at least 10-14 days before start of experiment to allow acclimatization to experimental settings. During this period the animals are handled at least 2 times. After arrival rats are housed individually for one week in a reversed light/dark phase (meaning that lights are off during daytime and on during nighttime) for two weeks. Since rats are normally active and eat their major part of their daily food intake during the dark period, rats are dosed in the morning right before lights are turned off. This set-up results in the lowest data variation and highst test sensitivity. The experiment is conducted in the rats' home cages and rats have free access to food and water throughout the acclimatization period and the experiment period. Each dose of derivative is tested in a group of 5-8 rats. A vehicle group of 6-8 rats is included in each set of testing. Rats are dosed once according to body weight with a 0.01-3 mg/kg solution administered intraperitoneally (ip), orally (po) or subcutaneously (sc). The time of dosing is recorded for each group. After dosing, the rats are returned to their home cages, where they then have access to food and water. The food consumption is recorded individually continuously by online registration or manually every hour for 7 hours, and then after 24 h and sometimes 48 h. At the end of the experimental session, the animals are euthanized.
The individual data are recorded in Microsoft excel sheets. Outliers are excluded after applying the Grubbs statistical evaluation test for outliers, and the result is presented graphically using the GraphPad Prism program.

[1] = tested on: amylin receptor / calcitonin receptor; conditions: background statement, cited from earlier work

Plasma calcium red (%) 0-12 h (maximal) (Male Wistar rats; 3 nmol/kg) [%] | Plasma calcium red (%) 0-12 h (maximal) (Male Wistar rats; 30 nmol/kg) [%] | Compound | plasma calcium (Male Wistar rats; dose 30 nmol/kg) | Food intake red (%) 0-24 h (Male Sprague-Dawley rats; 30 nmol/kg) [%] | Food intake red (%) 24-48 h (Male Sprague-Dawley rats; 30 nmol/kg) [%] | food intake monitored over 48 hours (Male Sprague-Dawley rats; single subcutaneous administration, 30 nmol/kg, versus vehicle) | reduction of food intake (Sprague Dawley (SD) rats) [%] | Plasma calcium red (%) 0-12 h (maximal) (Male Wistar rats; 1000 nmol/kg) [%] | potency on the amylin receptor relative to the calcitonin receptor [1] | potency on the amylin receptor relative to the calcitonin receptor ([1]; listed as pramlintide) [times] | Food intake red (%) 0-24 h (Male Sprague-Dawley rats; 1000 nmol/kg) [%] | Food intake red (%) 24-48 h (Male Sprague-Dawley rats; 1000 nmol/kg) [%]
35 | 39 | CC(C)C[C@H](NC(=O)[C@H](CCCCN)NC(=O)CNC(=O)[C@H](CC(C)C)NC(=O)[C@@H](NC(=O)[C@@H]1CSSC[C@H](N)C(=O)N[C@@H](CO)C(=O)N[C@@H](CC(N)=O)C(=O)N[C@@H](CC(C)C)C(=O)N[C@@H](CO)C(=O)N[C@@H]([C@@H](C)O)C(=O)N1)C(C)C)C(=O)N[C@@H](CO)C(=O)N[C@@H](CCC(N)=O)C(=O)N[C@@H](CCC(=O)O)C(=O)N[C@@H](CC(C)C)C(=O)N[C@@H](Cc1c[nH]cn1)C(=O)N[C@@H](CCCCN)C(=O)N[C@@H](CC(C)C)C(=O)N[C@@H](CCC(N)=O)C(=O)N[C@H](C(=O)N[C@@H](Cc1ccc(O)cc1)C(=O)N1CCC[C@H]1C(=O)N[C@@H](CCCNC(=N)N)C(=O)N[C@H](C(=O)N[C@@H](CC(N)=O)C(=O)N[C@H](C(=O)NCC(=O)N[C@@H](CO)C(=O)NCC(=O)N[C@H](C(=O)N1CCC[C@H]1C(N)=O)[C@@H](C)O)[C@@H](C)O)[C@@H](C)O)[C@@H](C)O [salmon calcitonin, reference compound] | below 1.7 mM | 87 | 19 | reduction of food intake; also recorded: reduces food intake |  |  |  |  |  | 
 |  | Pramlintide (KCNTATCATQRLANFLVHSSNNFGPILPPTNVGSNTY-NH2; disulfide 2-7; UniProt P10997 34-70, looked up, variant A25P S28P S29P) [reference compound] |  |  |  |  | 25 | 28 | approximately 14 times | 14 | 25 | 0
